This series in a line: photoluminescence quantum yield (fraction); solvent given as SMILES.

SMILES strings stand for the structures. Several values for one entry are separate records, joined by “and”; a condition that tells them apart may be missing. Equal entries are not always repeated.

In the case of `F[B-]1(F)n2c(Nc3cccc4cccnc34)ccc2C(c2ccccc2)=C2C=CC(Cl)=[N+]21`, the photoluminescence quantum yield by setting is: (in C1CCCCC1) 0.17; (in CC#N) 0.0024; (in Cc1ccccc1) 0.04; (in ClC(Cl)Cl) 0.01.
As for `N[C@@H](Cn1nnc2cc(-c3ccc(-c4ccsc4)cc3)ccc21)C(=O)O`, the photoluminescence quantum yield (in CO) turned out to be 0.03.
In the case of `c1cc2ccc1-c1ccc(cc1)-c1ccc(s1)-c1ccc(cc1)-c1ccc(cc1)-c1ccc(s1)-c1ccc(cc1)-c1ccc(cc1)-c1ccc-2s1`, the photoluminescence quantum yield (in C1CCOC1) was 0.27.
For `CCCCN(CCCC)c1ccc(C#Cc2cc(C#Cc3ccc(C#N)cc3)c(C#Cc3ccc(C#N)cc3)cc2C#Cc2ccc(N(CCCC)CCCC)cc2)cc1`, the photoluminescence quantum yield (in ClCCl) is 0.26.
On to `F[B-]1(F)n2cccc2C=C2c3ccccc3C(c3ccc[nH]3)=[N+]21`, for which the photoluminescence quantum yield was determined as 0.82 (in C1CCOC1); 0.8 (in CC#N); 0.83 (in CCCCCC); 0.76 (in CO); 0.81 (in Cc1ccccc1); 0.8 (in ClCCl).
With `C#CCn1c2ccccc2c2cc(/C=C/C3=[N+]4C(=C(c5ccc(I)cc5)c5c(C)c(Cl)c(/C=C/c6ccc7c(c6)c6ccccc6n7CC#C)n5[B-]4(F)F)C(C)=C3Cl)ccc21`, the photoluminescence quantum yield by setting is: (in CC#N) 0.5; (in CS(C)=O) 0.32; (in ClC(Cl)Cl) 0.55.
In the case of `CC(C)c1ccc2ccc3cccc4ccc1c2c34`, the photoluminescence quantum yield (in CCCCCC) amounted to 0.21, the photoluminescence quantum yield (in CO) was determined as 0.24 and the photoluminescence quantum yield (in ClCCl) is 0.41.
In the case of `N#Cc1ccc(-c2cnc3cccc(-c4ccccc4)n23)cc1`, the photoluminescence quantum yield (in ClCCl) was 0.19.
In turn, `CN(C)c1ccc(/C=C/c2nc3ccc(Br)cc3nc2-c2ccccc2)cc1` had a photoluminescence quantum yield (in C1COCCO1) of 0.19, a photoluminescence quantum yield (in CC#N) of 0.01 and a photoluminescence quantum yield (in ClCCl) of 0.17.
The molecule `Fc1cccc(C2=Cc3ccc4ccccc4[n+]3[B-](F)(F)O2)c1` gave a photoluminescence quantum yield (in ClC(Cl)Cl) of 0.47.
Under “in CS(C)=O”, `C(/C=C/Nc1ccccc1)=[NH+]c1ccccc1` yielded a photoluminescence quantum yield of 0.08.
As for `CN(C)c1ccc(-c2cc(=O)c3ccccc3o2)cc1`, the photoluminescence quantum yield (in C1CCCCC1) was found to be 0.007; the photoluminescence quantum yield (in C1CCOC1) is 1; the photoluminescence quantum yield (in CC#N) is 1 and 0.96; the photoluminescence quantum yield (in CCOC(C)=O) worked out at 1; the photoluminescence quantum yield (in CCOCC) amounted to 0.87; the photoluminescence quantum yield (in CO) came out at 0.095. For the same molecule, for the setting “in Cc1ccccc1”, the photoluminescence quantum yield came to 0.76.
As to `CN1C(=O)/C(=C/c2ccncc2)N=C1/C=C/c1ccccc1`, the photoluminescence quantum yield was 0.029 (in C1COCCO1); 0.011 (in CC#N); 0.099 (in CCO); 0.017 (in CCOC(C)=O); 0.004 (in O).
With `Cc1ccc(-c2ccc(/C=C/c3cccn3C)cn2)nc1`, the photoluminescence quantum yield (in C1COCCO1) was 0.25; the photoluminescence quantum yield (in CC#N) amounted to 0.087; the photoluminescence quantum yield (in CCCCCC) stood at 0.36; the photoluminescence quantum yield (in CCO) was determined as 0.2; the photoluminescence quantum yield (in CN(C)C=O) was 0.19; the photoluminescence quantum yield (in CO) turned out to be 0.18. The photoluminescence quantum yield (in CS(C)=O) amounted to 0.19, the photoluminescence quantum yield (in Cc1ccccc1) turned out to be 0.25, the photoluminescence quantum yield (in ClC(Cl)Cl) came to 0.25 and the photoluminescence quantum yield (in c1ccccc1) is 0.25.
For the setting “in ClCCl”, `O=C(c1sc(-c2ccc(-c3cc(-c4cccs4)c(C(=O)N4CCOCC4)s3)s2)cc1-c1cccs1)N1CCOCC1` had a photoluminescence quantum yield of 0.14.
Consider `CC(=O)c1ccc(-c2nc3ccc(N(C)C)c(Cl)c3s2)cc1`, for which the photoluminescence quantum yield came out at 0.5 (in C1CCCCC1), 0.7 (in CC#N), 0.054 (in CO) and 0.9 (in ClC(Cl)Cl).
`COC(=O)/C=C/C1=CC2=C(c3c(C)cc(C)cc3C)c3cc(/C=C/C(=O)OC)cn3[B-](F)(F)[N+]2=C1` returned a photoluminescence quantum yield (in ClCCl) of 0.36.
For `C[N+]1=c2ccc3c(c2C(C)(C)CC1)Oc1cc2c(cc1C=3c1ccccc1C(=O)O)C(c1ccccc1C(=O)O)=c1ccc3c(c1O2)C(C)(C)CC[N+]=3C`, where the note is “in ClC(Cl)Cl”, the photoluminescence quantum yield came out at 0.5.
Molecule `CC1(C)C(/C=C/C2=C(Cl)C(=C/C=C3/N(Cc4ccc(F)cc4)c4ccccc4C3(C)C)/CCC2)=[N+](Cc2ccc(F)cc2)c2ccccc21` returned a photoluminescence quantum yield (in CCO) of 0.148.
`COCCC1=Cc2nc1ccc1[nH]c(cc1CCOC)c1nc(ccc3[nH]c2cc3CCOC)C(CCOC)=C1`: the photoluminescence quantum yield (in Cc1ccccc1) was 0.47.
Take `c1cc2c3c(c1)OCCCCCCCCOc1cccc(c1-c1c4ccccc4c-3c3ccccc13)OCCCCCCCCO2`: under “in C1CCCCC1”, the photoluminescence quantum yield is 0.95.
Consider `COc1ccc(-c2cc3c4c(c2)CCc2cc(-c5ccc(OC)cc5)cc(c2-4)CC3)cc1`, for which the photoluminescence quantum yield worked out at 0.81 (in C1CCCCC1); 0.76 (in C1CCOC1); 0.6 (in CC#N); 0.92 (in CCCCCC); 0.53 (in CCO); 0.55 (in CN(C)C=O). Moreover, the photoluminescence quantum yield reads like this: (in CO) 0.45; (in Cc1ccccc1) 1; (in ClC(Cl)Cl) 0.39; (in ClCCl) 1.
On to `CC(C)[Si]1(C(C)C)c2cc(C#N)ccc2-c2ccc(N(c3ccccc3)c3ccccc3)cc21`, for which the photoluminescence quantum yield by setting is: (in C1CCCCC1) 0.64; (in CC#N) 0.67; (in CCO) 0.72; (in CCOCC) 0.74; (in CS(C)=O) 0.81; (in ClCCl) 0.8. In addition, where the note is “in c1ccccc1”, the photoluminescence quantum yield was 0.75.
The molecule `Cc1nc2c(ccc3ccccc32)oc1=O` yielded a photoluminescence quantum yield (in c1ccccc1) of 0.198.
With `COc1ccc(C#Cc2c3cc4cc(C)sc4cc3c(C#Cc3ccc(OC)cc3)c3cc4cc(C)sc4cc23)cc1`, the photoluminescence quantum yield (in ClCCl) is 0.92.
As to `CCOC(=O)c1ccccc1-c1c2ccc(=O)cc-2oc2cc(OC(=O)[C@H](CO[Si](C)(C)C(C)(C)C)NC(=O)OC(C)(C)C)ccc12`, the photoluminescence quantum yield (in C1CCOC1) stood at 0.003, the photoluminescence quantum yield (in CC#N) is 0.003, the photoluminescence quantum yield (in CCO) was 0.048 and the photoluminescence quantum yield (in CS(C)=O) was 0.01.
In the case of `C[Si](C)(C)c1ccc(-c2ccc(-c3ccc(-c4ccc(-c5ccc([Si](C)(C)C)cc5)cc4)c4nsnc34)cc2)cc1`, the photoluminescence quantum yield (in C1CCOC1) came to 0.84.
`COc1ccc(-c2nc3c([nH]2)C2=CC(=O)S[C@]2(C)[C@@]2(C)SC(=O)C=C32)cc1` showed a photoluminescence quantum yield (in CC#N) of 0.17.
Take `CC(=O)Nc1ccc(S(=O)(=O)O)c(/N=N/c2c(O)c3ccccc3n(C)c2=O)c1`: the photoluminescence quantum yield (in CS(C)=O) came out at 0.03.
`F[B-]1(F)n2c(-c3ccccc3)cc(-c3ccccc3)c2N=C2C(c3ccccc3)=CC(c3ccccc3)=[N+]21` came in with a photoluminescence quantum yield (in CC#N) of 0.22 and a photoluminescence quantum yield (in ClC(Cl)Cl) of 0.34.
Take `CN1c2ccccc2CCc2ccccc21`: the photoluminescence quantum yield was 0.031 (in CC#N) and 0.027 (in CO).
Regarding `Cc1ccsc1-c1ccc(-c2ccc(-c3sccc3C)s2)s1`, where the note is “in CCC(C)C”, the photoluminescence quantum yield turned out to be 0.19.
For the molecule `C(#Cc1nc(C#Cc2ccccc2)c(C#Cc2ccccc2)c(C#Cc2ccccc2)c1C#Cc1ccccc1)c1ccccc1`, the photoluminescence quantum yield (in ClCCl) amounted to 0.55.
Under “in ClC(Cl)Cl”, `CCCCCCCCn1c(=O)c2cc3c(C#Cc4ccc(N(c5ccccc5)c5ccccc5)cc4)c4cc5c(=O)n(CCCCCCCC)c(=O)c5cc4c(C#Cc4ccc(N(c5ccccc5)c5ccccc5)cc4)c3cc2c1=O` registered a photoluminescence quantum yield of 0.53.
`CCCCCCc1cc2c3c(c1)c(=C1c4ccccc4Sc4ccccc41)c1cc(CCCCCC)cc4c1N3c1c(cc(CCCCCC)cc1c4=C1c3ccccc3Sc3ccccc31)c2=C1c2ccccc2Sc2ccccc21` gave a photoluminescence quantum yield (in ClCCl) of 0.57.
For `CC1=CC(C)=[N+]2C1=Cc1cccn1[B-]2(F)F`, the photoluminescence quantum yield runs as follows: (in CCCCCC) 0.93; (in CO) 0.99; (in ClCCl) 0.87.
With `CCCCOc1ccc(/C=C/C=C/C=C/c2ccc([N+](=O)[O-])cc2)cc1`, the photoluminescence quantum yield (in CC1CCCCC1) amounted to 0.25, the photoluminescence quantum yield (in CC#N) is 0.014, the photoluminescence quantum yield (in Cc1ccccc1) worked out at 0.53 and the photoluminescence quantum yield (in ClCCl) amounted to 0.06.
For `N#Cc1nn(-c2ccccc2)nc1N1CCCC1`, under “in CC#N”, the photoluminescence quantum yield was determined as 0.886.
Turning to `F[B-]1(F)OC(c2cc3c4c(c2)CCCN4CCC3)=Cc2cccc[n+]21`, the photoluminescence quantum yield (in ClC(Cl)Cl) is 0.57.
In the case of `COc1ccc(-c2cc3c(s2)-c2sc(-c4ccc(OC)cc4)cc2P(c2ccccc2)(c2ccccc2)=[O+][B-]3(c2c(C)cc(C)cc2C)c2c(C)cc(C)cc2C)cc1`, the photoluminescence quantum yield (in C1CCOC1) stood at 0.52.
`COC(=O)C(N)Cc1ccc(O[Si]2(Oc3ccc(CC(N)C(=O)OC)cc3)n3c4c5ccccc5c3/N=C3N=C(/N=c5/c6ccccc6/c(n52)=N/C2=NC(=N\4)/c4ccccc42)c2ccccc2\3)cc1` (stereo not given) displayed a photoluminescence quantum yield (in CN(C)C=O) of 0.12.
Regarding `CC1(C)c2ccccc2N(c2ccc(C(=O)c3cc(C(=O)c4ccc(N5c6ccccc6C(C)(C)c6ccccc65)cc4)cc(C(=O)c4ccc(N5c6ccccc6C(C)(C)c6ccccc65)cc4)c3)cc2)c2ccccc21`, the photoluminescence quantum yield reads like this: (in Cc1ccccc1) 0.189; (in c1ccc2c(c1)c1ccccc1n2-c1ccc(-c2ccc(-n3c4ccccc4c4ccccc43)cc2)cc1) 0.856.
In the case of `CN(C)c1ccc(C#Cc2ccc(C#Cc3ccc(C#Cc4ccccc4C#N)cc3C#N)cc2C#N)cc1`, the photoluminescence quantum yield came out at 0.084 (in C1CCOC1); 0.002 (in CC#N); 0.002 (in CN(C)C=O); 0.999 (in ClC(Cl)Cl); 0.999 (in c1ccccc1).
In turn, `O=Cc1ccc(C#CC(C#Cc2ccc(C=O)s2)=Cc2ccc(C=C(C#Cc3ccc(C=O)s3)C#Cc3ccc(C=O)s3)cc2)s1` yielded a photoluminescence quantum yield (in ClC(Cl)Cl) of 0.08.

Source of the values: the Deep4Chem optical property database.
